# Measurements published in US8247609B2, “Aminoacid derivatives containing a disulfanyl group in the form of mixed disulfanyl and aminopeptidase N inhibitors” (Pharamleads, priority 2005, dated 2012).
# Read-outs that look alike come from different tables or passages of the source. Marks after values point to notes of the source that are not given here.
# How the values were obtained:
# Log Kow = format: physicochemical
# Solubility in solvents = format: physicochemical
# male OF1 mice [1] = assay: Hot plate test (52° C., jump latency) in mice; format: in vivo, mouse; conditions: for ED50: Mus musculus
# Experimental: Hot plate test: this test relates to the licking and jumping reflex in mice on a plate heated at 52° C. (measurement of jump latency in the examples given). The results are expressed in % of maximum possible effect (% MPE), i.e., expressed as a percentage of analgesia, using the following equation:
# Maximum latency time=240 seconds.
# The results are expressed in term of mean±SEM. The differences observed are considered significant when the values of p are less than 0.05. The test used is an ANOVA test with a multiple comparison test.
# Compound 15 is dissolved in a water/mannitol mixture (50 mg/ml). Jump latency times are measured 10 min after the injections by intravenous route.
# Compound 15 is dissolved in a ethanol/Cremophor® EL/water mixture. Jump latency times are measured 10 min after intravenous injection.
# Compound 15 is dissolved in an ethanol/PEG400/water 10/40/50 mixture.
# Compounds 15 and A are dissolved in an ethanol/Cremophor EL/water 10/10/80 mixture. Jump latency times are measured 10 min after intravenous injection.
# The analgesia produced by morphine or compound 15 in mice (male OF1) in the hot plate test (52° C.) was measured. Morphine in H2O/NaCl, 9/1000) or compound 15 dissolved in the vehicle EtOH/Cremophor El/water (10/10/80) is injected by IV. The results are measured 10 minutes after injection and latency time is 240 seconds (equation given in examples 15 and 17).
# The analgesia produced by Δ^9 THC in mice (male OF1) in the plate hot test (52° C.) was measured. Δ^9 THC, dissolved in the vehicle EtOH/Cremophor EL/water (10/10/80), is injected by IV route. The results are measured 10 minutes after injection and latency time is 240 seconds (equation given in examples 15 and 17).
# This test relates to the licking and jumping reflex in mice on a plate heated at 52° C. The results are expressed in % of maximum possible effect (% MPE), i.e., expressed as a percentage of analgesia, using the following equation:
# Maximum latency time=240 s.
# The mice weigh 25-30 grams.
# Jump latency is measured 10 minutes after intravenous injection.
# male OF1 mice [2] = assay: Hot plate test (52° C., jump latency) in mice; format: in vivo, mouse; conditions: after administration per os of 200 m/kg (FIG. 2b)
# [3] = tested on: mice inoculated in their right paw with NCTC 2472 cells; assay: Osteosarcoma-induced thermal hyperalgesia, unilateral hot plate test; format: in vivo, mouse; conditions: for Antihyperalgesic effect when administered alone: compound 15 12.5 mg/kg 20 min before testing, or Gabapentin 6.25 mg/kg 60 min before testing
# Excerpt: The comparison and possible facilitation of compound 15 analgesic effect by Gabapentin was investigated on the animal model of bone cancer induced by intraosteal inoculation of NCTC2472 tumor cells (Honoré P. et al., Neuroscience 98 (2000), 585-588 Mendez L. et al. J. Neurosci. Methods 113 (2002), 91-97).
# The methods used to measure the analgenisc effects (antihyperalgesia and allodynia) of various compounds of this animal model have been described in details and are used (Menendez L. et al. Brain Res. 969 (2003), 102-109) in these series of experiments.
# Osteosarcoma-induced thermal hyperalgesia measured by the unilateral hot plate test was inhibited by the oral administration of compound 15 (25 mg/kg). This inhibitory effect peaked 20-40 min after compound 15 administration, disappearing at time 60 (FIG. 4A).
# At this concentration the antagonist is unable to enter the brain supporting a peripheral analgesic effects of compound 15. ** p≦0.01. […]
# [4] = tested on: rat (male Sprague Dawley) with an inflamed paw; assay: Vocalization threshold on paw pressure, carrageenan-inflamed paw; format: in vivo; conditions: 100 mg/kg per os, 180 min after carrageenan, measured 20 min after administration
# Experimental: b) Antinociceptive effect of compound 15 (100 mg/kg par os) on vocalization threshold when pressure is applied to the paw of a rat (male Sprague Dawley) with an inflamed paw, inflammation being induced by intraplantar injection of carrageenan.
# Compound 15 and a vehicle (ethanol/polyethylene glycol (PEG) 400/water, 10/40/50) are administered 180 min after intraplantar injection of carrageenan (1% in saline solution).
# The baseline for vocalization threshold when pressure is applied to the paw is measured before inflammation (B) and for the inflamed paw 20 min after injection of compound 15 or the vehicle. The results are given in table 3 and are expressed as mean±SEM, n=10. The differences observed are considered significant when the values of p are less than 0.05.
# [5] = 1 mg/kg IV, 10 min after injection (Table 6)
# [6] = 2.5 mg/kg IV, 10 min after injection (Table 6)
# [7] = 5 mg/kg IV, 10 min after injection (Table 6)
# [8] = 5 mg/kg IV, ethanol/Cremophor EL/water 10/10/80, 10 min after injection (Table 5)
molecule,measurement,setting,value
1-(2-(1-(1-ethoxycarbonyloxyethoxycarbonyl)-2-hydroxypropylcarbamoyl)-3-thiophen-3-ylpropyldisulfanylmethyl)-3-methylsulfanylpropyl-ammonium trifluoroacetate [Compound 12e],Log Kow,Log Kow,0.76
1-(2-(1-ethoxycarbonylmethyloxycarbonylethylcarbamoyl)-3-thiophen-3-yl-propyldi sulfanylmethyl)-3-methylsulfanylpropyl-ammonium trifluoroacetate [Compound 12d],Log Kow,Log Kow,1.35
"CSCCC(N)CSSCC(Cc1ccsc1)C(=O)NC(C)C(=O)OCC(COC(C)=O)OC(C)=O.O=C(O)C(F)(F)F (centres unmarked) [Compound 12a, 1-(2-(1-(2,3-diacetoxypropoxycarbonyl)-ethylcarbamoyl)-3-thiophen-3-ylpropyldisulfanylmethyl)-3-methylsulfanylpropyl-ammonium trifluoroacetate]",Log Kow,Log Kow,1.31
"CSCCC(N)CSSCC(Cc1ccsc1)C(=O)NC(C)C(=O)OCCS(C)(=O)=O.O=C(O)C(F)(F)F (centres unmarked) [Compound 12b, 1-(2-(1-(2-methanesulfonylethoxycarbonyl)-ethylcarbamoyl)-3-thiophen-3-ylpropyldisulfanylmethyl)-3-methylsulfanylpropyl-ammonium trifluoroacetate]",Log Kow,Log Kow,−0.13
CCOC(=O)OC(C)OC(=O)C(C)NC(=O)C(CSSCC(N)CCSC)Cc1ccsc1.O=C(O)C(F)(F)F (centres unmarked) [Compound 12c],Log Kow,Log Kow,1.63
"CSCCC(N)CSSCC(Cc1ccsc1)C(=O)NC(C)C(=O)OC(COC(C)=O)COC(C)=O.O=C(O)C(F)(F)F (centres unmarked) [Compound 12f, 1-(2-(1-(2-acetoxy-1-acetoxymethylethoxycarbonyl)-ethylcarbamoyl)-3-thiophen-3-ylpropyldisulfanylmethyl)-3-methylsulfanylpropyl-ammonium trifluoroacetate]",Log Kow,Log Kow,1.31
"CSCCC(N)CSSCC(Cc1ccsc1)C(=O)NC(C)C(=O)OC(CO)CO.O=C(O)C(F)(F)F (centres unmarked) [Compound 12g, 1-(2-(1-(2-hydroxy-1-hydroxymethylethoxycarbonyl)-ethylcarbamoyl)-3-thiophen-3-ylpropyldisulfanylmethyl)-3-methylsulfanylpropyl-ammonium trifluoroacetate]",Log Kow,Log Kow,−0.29
"CSCCC(N)CSSCC(Cc1ccsc1)C(=O)NC(C)C(=O)OCC1OC(O)C(O)C(O)C1O.O=C(O)C(F)(F)F (centres unmarked) [Compound 12h, 1-(2-(1-(3,4,5,6-tetrahydroxytetrahydropyran-2-ylmethoxycarbonyl)ethylcarbamoyl)-3-thiophen-3-yl-propyldisulfanylmethyl)-3-methylsulfanylpropyl-ammonium trifluoroacetate]",Log Kow,Log Kow,−1.15
CCOC(=O)OC(C)OC(=O)C(NC(=O)C(CSSCC(N)CCSC)Cc1ccccc1)C(C)O.O=C(O)C(F)(F)F (centres unmarked) [Compound 12i],Log Kow,Log Kow,0.76
"CSCCC(N)CSSCC(Cc1ccccc1)C(=O)NC(C(=O)OC(COC(C)=O)COC(C)=O)C(C)O.O=C(O)C(F)(F)F (centres unmarked) [Compound 12j, 1-(2-(1-(2-acetoxy-1-acetoxymethyl-thoxycarbonyl)-2-hydroxypropylcarbamoyl)-3-phenylpropyldisulfanylmethyl)-3-methylsulfanylpropyl-ammonium trifluoroacetate]",Log Kow,Log Kow,0.44
CCOC(=O)OC(C)OC(=O)CNC(=O)C(CSSCC(N)CCSC)Cc1ccccc1.O=C(O)C(F)(F)F (centres unmarked) [Compound 12k],Log Kow,Log Kow,1.39
CCOC(=O)OC(C)OC(=O)CNC(=O)C(CSSC[C@@H](N)CCSC)Cc1ccccc1 (some centres unmarked) [Compound 15],Solubility in ethanol/Tween®/water solvents,Solubility in solvents,soluble
same,% analgesia,male OF1 mice [1]; [5],46.4 ± 5.6 %
same,% analgesia,male OF1 mice [1]; [6],56.3 ± 6.9 %
same,% analgesia,"male OF1 mice [1]; 2.5 mg/kg IV, ethanol/Cremophor EL/water, 10 min after injection",56.2 ± 6.9 %
same,% analgesia,"male OF1 mice [1]; 2.5 mg/kg IV, ethanol/Tween 20/water, 10 min after injection",48.4 ± 10.2 %
same,% analgesia,"male OF1 mice [1]; 2.5 mg/kg IV, ethanol/Tween 80/water, 10 min after injection",44.7 ± 6.2 %
same,% analgesia,male OF1 mice [1]; [7],87.6 ± 4.6 %
same,% analgesia,male OF1 mice [1]; [8],87.6 ± 4.6 %
same,% analgesia,"male OF1 mice [1]; 10 mg/kg IV, water/mannitol vehicle, 10 min after injection, male mice",33.4 ± 7.5 %
same,% analgesia,"male OF1 mice [1]; 20 mg/kg IV, water/mannitol vehicle, 10 min after injection, male mice",59.2 ± 9.6 %
same,% analgesia,"male OF1 mice [1]; 40 mg/kg IV, water/mannitol vehicle, 10 min after injection, male mice",90.2 ± 7.0 %
same,ED50,"male OF1 mice [1]; 10 min, IV, ethanol/Cremophor EL/water, 10 min after injection (FIG. 1), read-out: ED50 (analgesic response)",1.9 ± 0.4 mg/kg
same,ED50,"male OF1 mice [1]; 10 min, IV, water/mannitol vehicle, 10 min after injection, read-out: Effective dose 50, ED50",16.1 mg/kg
same,ED50,"male OF1 mice [1]; per os 20 min before test, ethanol/PEG400/water 10/40/50 (FIG. 2a), read-out: ED50 (analgesic effect)",135 mg/kg
same,Persistence of analgesic effect,male OF1 mice [2],at least two hours
same,Time at which inhibitory effect disappears,[3]; 25 mg/kg oral,60
same,Time of peak inhibitory effect after administration,[3]; 25 mg/kg oral,20 to 40 min
same,Osteosarcoma-induced thermal hyperalgesia,[3]; 25 mg/kg oral (FIG. 4A),inhibited
same,Antihyperalgesic effect in presence of naloxone-methiodide,"[3]; 25 mg/kg p.o. 20 min before testing, naloxone-methiodide 2 mg/kg i.p. 20 min before testing (FIG. 5)",completely inhibited
same,"Effect on thermal latencies, inoculated versus control paws","[3]; 25 mg/kg p.o., 20 min after administration (FIG. 4B)",exclusively increases the latencies measured in the inoculated right paws
same,Antihyperalgesic effect when administered alone,[3],do not produce any antihyperalgesic effect
same,Vocalization threshold,[4],292.5 ± 20.1 g
"CSCCC(N)CSSCC(Cc1ccccc1)C(=O)NC(Cc1ccccc1)C(=O)OCc1ccccc1 (centres unmarked) [Compound A, reference compound]",Solubility in aqueous or hydrophilic solvents,Solubility in solvents,poorly soluble
same,% analgesia,male OF1 mice [1]; [8],51.1 ± 7.6 %
NCC1(CC(=O)O)CCCCC1 [Gabapentin],Antihyperalgesic effect,"[3]; 6.25 mg/kg i.p., 60 minutes after injection (FIG. 6B)",subeffective
same,Antihyperalgesic effect,"[3]; 12.5 mg/kg i.p., 60 minutes after injection",significant antihyperalgesic effect
same,Antihyperalgesic effect,"[3]; 25 mg/kg i.p., 40 and 60 min after injection (FIG. 6A)",clear antihyperalgesic effect
same,Withdrawal latencies,"[3]; 25 mg/kg i.p., 20 min after administration",No modification of withdrawal latencies
same,Antihyperalgesic effect,"[3]; 25 mg/kg i.p., 60 minutes after injection",completely suppressed the hyperalgesic effect
same,Withdrawal latencies of contralateral paws,[3]; 6.25-25 mg/kg i.p.,None of these doses of Gabapentin modified the withdrawal latencies of contralateral paws
same,Antihyperalgesic effect when administered alone,[3],do not produce any antihyperalgesic effect
"CN1CC[C@]23c4c5ccc(O)c4O[C@H]2[C@@H](O)C=C[C@H]3[C@H]1C5 [morphine, reference compound]",% analgesia,male OF1 mice [1]; [5],45.5 ± 4.5 %
same,% analgesia,male OF1 mice [1]; [6],66 ± 6.0 %
same,% analgesia,male OF1 mice [1]; [7],100*** %
same,ED50,"male OF1 mice [1]; iv, 10 min, read-out: ED50 (analgesic response)",1.3 ± 0.2 mg/kg
"CCCCCc1cc(O)c2c(c1)OC(C)(C)[C@@H]1CCC(C)=C[C@@H]21 [Δ^9 THC, Δ^9 tetrahydrocannabinol, reference compound]",% analgesia,"male OF1 mice [1]; 0.188 mg/kg IV, EtOH/Cremophor EL/water, 10 min after injection",0.4 ± 3.9%
same,% analgesia,"male OF1 mice [1]; 0.375 mg/kg IV, EtOH/Cremophor EL/water, 10 min after injection",18.2 ± 6.4%
same,% analgesia,"male OF1 mice [1]; 0.75 mg/kg IV, EtOH/Cremophor EL/water, 10 min after injection",41.2 ± 12.7 %
same,% analgesia,"male OF1 mice [1]; 1.5 mg/kg IV, EtOH/Cremophor EL/water, 10 min after injection",57.2 ± 10.9 %
